Test results published in the supplement of paper PMC10307832.

Columns and labels:
Test in all cases: relative viability (nuclei count vs DMSO), 5 days (fraction); higher = more cells survive
[1] = compound: COc1cc2ncn(-c3cc(OCc4ccccc4C(F)(F)F)c(C(N)=O)s3)c2cc1OC + Cc1nc(Nc2ncc(C(=O)Nc3c(C)cccc3Cl)s2)cc(N2CCN(CCO)CC2)n1 [Dasatinib] (partner 0.075 µM)
Summary of the method: (§1)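 Each reported value is a median over duplicate plates. It expresses relative viability: treated-well nuclei count divided by vehicle-well nuclei count. Lung cancer cell lines in 1536-well plates were dosed by pin tool a day after seeding, alone with one drug or with a fixed anchor-drug dose plus five library-drug doses (not always all listed) in √10 steps, and nuclei were counted after 5 days.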

[2] = compound: COc1cc2ncn(-c3cc(OCc4ccccc4C(F)(F)F)c(C(N)=O)s3)c2cc1OC + Nc1nc2[nH]cc(CCc3ccc(C(=O)N[C@@H](CCC(=O)O)C(=O)O)cc3)c2c(=O)[nH]1 [Pemetrexed] (partner 0.2 µM)
Summary of the method: as §1

[3] = compound: COc1cc2ncn(-c3cc(OCc4ccccc4C(F)(F)F)c(C(N)=O)s3)c2cc1OC + CC(=O)c1c(C)c2cnc(Nc3ccc(N4CCNCC4)cn3)nc2n(C2CCCC2)c1=O [Palbociclib] (partner 0.5 µM)
Summary of the method: as §1

[4] = compound: COc1cc2ncn(-c3cc(OCc4ccccc4C(F)(F)F)c(C(N)=O)s3)c2cc1OC + O=C(CCCCCCC(=O)Nc1ccccc1)NO [Vorinostat] (partner 1 µM)
Summary of the method: as §1

Cell Line | relative viability ([1]; first compound 0.05 µM) | relative viability ([1]; first compound 0.1581 µM) | relative viability ([1]; first compound 0.5 µM) | relative viability ([1]; first compound 1.581 µM) | relative viability ([1]; first compound 5 µM) | relative viability ([2]; first compound 0.05 µM) | relative viability ([2]; first compound 0.1581 µM) | relative viability ([2]; first compound 0.5 µM) | relative viability ([2]; first compound 1.581 µM) | relative viability ([2]; first compound 5 µM) | relative viability ([3]; first compound 0.05 µM) | relative viability ([3]; first compound 0.1581 µM) | relative viability ([3]; first compound 0.5 µM) | relative viability ([3]; first compound 1.581 µM) | relative viability ([3]; first compound 5 µM) | relative viability ([4]; first compound 0.05 µM) | relative viability ([4]; first compound 0.1581 µM) | relative viability ([4]; first compound 0.5 µM) | relative viability ([4]; first compound 1.581 µM) | relative viability ([4]; first compound 5 µM)
PC-3 [JPC-3] | 0.943 | 0.98 | 0.767 | 0.174 | 0.168 | 1.31 | 1.1 | 0.611 | 0.28 | 0.254 | 0.568 | 0.541 | 0.534 | 0.435 | 0.429 | 0.907 | 0.82 | 0.515 | 0.464 | 0.31
PC-14 | 0.201 | 0.235 | 0.106 | 0.0176 | 0.0233 | 0.132 | 0.148 | 0.126 | 0.048 | 0.0388 | 0.503 | 0.403 | 0.154 | 0.0334 | 0.0605 | 0.662 | 0.655 | 0.141 | 0.0309 | 0.0197
RERF-LC-KJ | 0.846 | 0.748 | 0.336 | 0.21 | 0.182 | 0.472 | 0.487 | 0.439 | 0.299 | 0.346 | 1.03 | 1.16 | 0.71 | 0.616 | 0.46 | 0.696 | 0.626 | 0.33 | 0.287 | 0.345
SK-LU-1 | 0.183 | 0.198 | 0.138 | 0.146 | 0.158 | 0.7 | 0.886 | 0.351 | 0.298 | 0.272 | 0.404 | 0.355 | 0.349 | 0.212 | 0.214 | 0.615 | 0.529 | 0.301 | 0.304 | 0.257
SK-MES-1 | 0.338 | 0.367 | 0.184 | 0.129 | 0.116 | 0.903 | 0.829 | 0.419 | 0.195 | 0.167 | 0.298 | 0.281 | 0.264 | 0.192 | 0.199 | 1.06 | 1.01 | 0.212 | 0.174 | 0.147
SW 900 | 0.545 | 0.604 | 0.5 | 0.328 | 0.0938 | 0.453 | 0.544 | 0.408 | 0.254 | 0.187 | 0.478 | 0.5 | 0.499 | 0.399 | 0.257 | 0.483 | 0.417 | 0.416 | 0.287 | 0.154
SW 1573 | 0.574 | 0.416 | 0.11 | 0.0632 | 0.0788 | 0.839 | 0.742 | 0.594 | 0.149 | 0.136 | 0.355 | 0.432 | 0.177 | 0.123 | 0.127 | 0.834 | 0.691 | 0.219 | 0.142 | 0.0957
UMC-11 | 0.533 | 0.399 | 0.168 | 0.18 | 0.133 | 0.619 | 0.599 | 0.201 | 0.191 | 0.201 | 0.331 | 0.35 | 0.258 | 0.256 | 0.224 | 0.283 | 0.22 | 0.136 | 0.131 | 0.104
